Reference: ChEMBL document CHEMBL5390225, “Discovery and structural optimization of a new series of N-acyl-2-aminobenzothiazole as inhibitors of Zika virus” (Bioorg Med Chem, 2023)

Legend:
[1] = tested on: Zika virus; experiment: (§1) Inhibition of Zika virus BeH823339 NS2B protease (49 to 95 residues) R96A mutant/NS3 protease (1 to 170 residues) R29G/ C80S/C143S mutant expressed in Escherichia coli BL21 (DE3) cells using Bz-Nle-Lys-Lys-Arg-AMC as a fluorogenic substrate at 100 uM preincubated with enzyme for 10 mins by fluorescence-based analysis relative to control
[2] = Cytotoxicity against African green monkey Vero E6 cells assessed as cell viability at 2 uM measured after 72 hrs by MTT assay relative to control; assay type: toxicity, cell-based, Vero C1008; settings: chlorocebus sabaeus, read-out: Activity
[3] = as §1, with “substrate” for “substrate at 100 uM”, “analysis” for “analysis relative to control”
[4] = tested on: Zika virus; experiment: as §1, with “50” for “100”, “with 2 nM” for “with”
[5] = tested on: Zika virus; experiment: Antiviral activity against Zika virus PE243 infected in African green monkey Vero E6 cells assessed as inhibition of viral replication at 10 uM incubated for 72 hrs by immunofluorescence analysis; assay type: functional; settings: PE243, Vero C1008
[6] = tested on: Zika virus; experiment: as §1, with “mins in presence of 0.001% TritonX-100” for “mins”, “analysis” for “analysis relative to control”
[7] = tested on: Zika virus; experiment: as §1, with “50” for “100”, “mins in presence of BSA” for “mins”
[8] = tested on: Zika virus; experiment: as §1, with “uM” for “uM preincubated with enzyme for 10 mins”
[9] = tested on: Zika virus; experiment: Antiviral activity against Zika virus PE243 infected in African green monkey Vero E6 cells assessed as inhibition of viral replication at 2 uM incubated for 72 hrs by immunofluorescence analysis; assay type: functional; settings: PE243, Vero C1008
[10] = biological target: Cruzipain (Trypanosoma cruzi) (UniProt P25779); experiment: Inhibition of recombinant Trypanosoma cruzi Cruzain using Z-Phe-Arg-AMC as fluorogenic substrate at 50 uM preincubated with enzyme for 10 mins by fluorescence-based analysis relative to control
Cruzipain (Trypanosoma cruzi), sequence (P25779 123-467 limits assumed): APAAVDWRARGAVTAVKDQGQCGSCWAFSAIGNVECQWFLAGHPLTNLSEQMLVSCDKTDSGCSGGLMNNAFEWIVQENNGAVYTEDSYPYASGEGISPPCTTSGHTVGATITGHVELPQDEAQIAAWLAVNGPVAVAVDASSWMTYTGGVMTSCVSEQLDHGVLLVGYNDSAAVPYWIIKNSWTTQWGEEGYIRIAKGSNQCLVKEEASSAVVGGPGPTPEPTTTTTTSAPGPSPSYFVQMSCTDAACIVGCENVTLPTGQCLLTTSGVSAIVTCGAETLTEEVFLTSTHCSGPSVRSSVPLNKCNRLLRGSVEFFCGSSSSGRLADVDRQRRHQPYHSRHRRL

[11] = Cytotoxicity against African green monkey Vero E6 cells assessed as cell viability at 10 uM measured after 72 hrs by MTT assay relative to control; assay type: toxicity, cell-based, Vero C1008; settings: chlorocebus sabaeus, read-out: Activity
[12] = tested on: Zika virus; experiment: as §1, with “50” for “100”, “with 0.2 nM” for “with”
[13] = tested on: Zika virus; experiment: Antiviral activity against Zika virus infected in golden hamster BHK21-RepZIKV_IRES-Neo cells assessed as inhibition of viral replication by measuring reduction in renilla luciferase expression at 10 uM measured after 72 hrs by luciferase reporter gene assay relative to control; assay type: functional, Mesocricetus auratus; settings: BHK-21
[14] = Cytotoxicity against African green monkey Vero E6 cells assessed as reduction in cell viability measured after 72 hrs by MTT assay; assay type: toxicity, cell-based, Vero C1008; settings: chlorocebus sabaeus
[15] = tested on: Zika virus; experiment: Antiviral activity against Zika virus PE243 infected in African green monkey Vero E6 cells assessed as inhibition of viral replication incubated for 72 hrs by immunofluorescence analysis; assay type: functional, organism-based; settings: PE243, Vero C1008, 72 h
[16] = tested on: BHK-21; experiment: Cytotoxicity against golden hamster BHK21-RepZIKV_IRES-Neo cells assessed as reduction in cell viability measured after 72 hrs by MTT assay; assay type: toxicity, cell-based, Mesocricetus auratus; settings: bhk-21, 72 h
[17] = Selectivity index, ratio of CC50 for cytotoxicity against African green monkey Vero E6 cells to EC50 for antiviral activity against Zika virus PE243 infected in African green monkey Vero E6 cells; assay type: toxicity, cell-based, Vero C1008; settings: read-out: Ratio CC50/EC50
[18] = tested on: Zika virus; experiment: as §1, with “25” for “100”, “with 2 nM” for “with”
[19] = tested on: Zika virus; experiment: as §1, with “25” for “100”, “with 0.2 nM” for “with”
[20] = tested on: Zika virus; experiment: as §1, with “25” for “100”, “mins in presence of BSA” for “mins”
[21] = biological target: Cruzipain (Trypanosoma cruzi) (UniProt P25779); experiment: Inhibition of recombinant Trypanosoma cruzi Cruzain using Z-Phe-Arg-AMC as fluorogenic substrate at 25 uM preincubated with enzyme for 10 mins by fluorescence-based analysis relative to control
[22] = tested on: Zika virus; experiment: as §1, with “10” for “100”, “mins in presence of BSA” for “mins”
[23] = tested on: Zika virus; experiment: as §1, with “Non-competitive inhibition” for “Inhibition”, “using 5.5 to 88 uM of” for “using”, “compound concentration close to IC50” for “100 uM”
[24] = biological target: Cruzipain (Trypanosoma cruzi) (UniProt P25779); experiment: Inhibition of recombinant Trypanosoma cruzi Cruzain using Z-Phe-Arg-AMC as fluorogenic substrate at 12.5 uM preincubated with enzyme for 10 mins by fluorescence-based analysis relative to control
[25] = tested on: Zika virus; experiment: as §1, with “12.5” for “100”, “with 2 nM” for “with”
[26] = tested on: Zika virus; experiment: as §1, with “12.5” for “100”, “with 0.2 nM” for “with”

| SMILES | inhibition [1] | viability at 72 h, 2 µM [2] | inhibition at 10 µM [5] | inhibition [8] | inhibition at 2 µM [9] | viability at 72 h, 10 µM [11] | inhibition at 10 µM [13] | CC50 at 72 h [14] | EC50 [15] | Activity [16] | selectivity ratio [17] | further results |
| --- | --- | --- | --- | --- | --- | --- | --- | --- | --- | --- | --- | --- |
| COc1ccc(S(=O)(=O)Nc2ccccc2C(=O)Nc2nc3ccccc3s2)cc1 | 100% | 98.5% | 1% | 92% | 5.4% | 104% | – | – | – | – | – | IC50 [3]: 24 µM; inhibition [4]: 25%; inhibition [6]: 53%; inhibition [7]: 20%; inhibition [10]: 96%; inhibition [12]: 39% |
| COc1ccc(S(=O)(=O)Nc2ccc(C(=O)Nc3nccs3)cc2)cc1 | 7% | 95.7% | 16.1% | – | 4.9% | 98.9% | – | – | – | – | – | – |
| Cc1ccc(S(=O)(=O)NCC(=O)Nc2nc3ccccc3s2)cc1 | 21% | 101% | 27.9% | – | 6.8% | 74.4% | – | – | – | – | – | – |
| O=C(Nc1nc2ccccc2s1)c1ccc(NS(=O)(=O)c2ccc(Br)cc2)cc1 | 4% | 97% | 75.7% | 7% | 69.1% | 22.7% | 60.4% | 45.8 µM | 5 µM | Non-Toxic | 9.2 | – |
| COc1ccc(S(=O)(=O)Nc2ccccc2C(=O)Nc2nccs2)cc1 | 100% | 36.2% | 100% | 62% | 68.6% | 34.8% | 75.5% | 38.7 µM | 5 µM | Non-Toxic | 7.7 | inhibition [18]: 20%; inhibition [19]: 43%; inhibition [20]: 5%; IC50 [3]: 26 µM; inhibition [6]: 24%; inhibition [21]: 20% |
| O=C(CNS(=O)(=O)c1ccc(F)cc1)Nc1nc2ccccc2s1 | 43% | 95.6% | 65.1% | – | 15.9% | 26.5% | – | – | – | – | – | – |
| CC(=O)Nc1ccc(S(=O)(=O)Nc2ccc(C(=O)Nc3nc4ccccc4s3)cc2)cc1 | 57% | 98.1% | 25.8% | 44% | 0.9% | 72.3% | – | – | – | – | – | – |
| COc1cc(Cl)ccc1S(=O)(=O)Nc1ccc(C(=O)Nc2nc3ccccc3s2)cc1 | 5% | 44% | 100% | 3% | 64.5% | 17.5% | 3.4% | 23.9 µM | 10.7 µM | Non-Toxic | 2.2 | – |
| COc1ccc(S(=O)(=O)NCC(=O)Nc2nc3ccccc3s2)cc1 | 62% | 104% | 0% | – | 0% | 82.7% | – | – | – | – | – | – |
| O=C(Nc1nc2ccccc2s1)c1ccc(NC(=S)Nc2ccccc2)cc1 | 99% | 96% | 73.6% | 46% | 9.4% | 29% | – | – | – | – | – | inhibition [22]: 12%; inhibition [23]: 25%; IC50 [3]: 8 µM; inhibition [24]: 72%; inhibition [6]: 46%; inhibition [25]: 9%; inhibition [26]: 15% |
| COc1ccc(OC)c(S(=O)(=O)NCC(=O)Nc2nc3ccccc3s2)c1 | 93% | 112% | 7.9% | 51% | 8.3% | 102% | – | – | – | – | – | inhibition [18]: 12%; inhibition [19]: 28%; inhibition [20]: 11%; IC50 [3]: 24 µM; inhibition [6]: 12%; inhibition [21]: 3% |
| O=C(Nc1nc2ccccc2s1)c1ccc(NS(=O)(=O)c2ccc(F)cc2)cc1 | 27% | 93.6% | 54.7% | 22% | 15.3% | 40.4% | – | – | – | – | – | – |
| Cc1ccc(S(=O)(=O)Nc2ccc(C(=O)Nc3nc4ccccc4s3)cc2)cc1 | 28% | 70.6% | 83% | 20% | 5.5% | 19.5% | – | – | – | – | – | – |
| COc1ccc(S(=O)(=O)Nc2ccccc2C(=O)Nc2nc3ccccc3[nH]2)cc1 | 100% | 33.5% | 98.8% | 62% | 97.6% | 19.9% | 46.4% | 56.5 µM | 33.9 µM | Non-Toxic | 1.7 | inhibition [22]: 8%; IC50 [3]: 8 µM; inhibition [24]: 58%; inhibition [6]: 42%; inhibition [25]: 16%; inhibition [26]: 62% |
| O=C(Nc1nc2ccccc2s1)c1ccc(NS(=O)(=O)c2ccc([N+](=O)[O-])cc2)cc1 | 39% | 101% | 72.1% | 30% | 0% | 99.7% | 23.4% | 30.2 µM | 7.5 µM | Non-Toxic | 4 | – |
| CC(C)(C)OC(=O)NCC(=O)Nc1nc2ccccc2s1 | – | 104% | 56.5% | – | 18.9% | 60.1% | – | 79 µM | 17 µM | – | 4.7 | – |
| O=C(Nc1nc2ccccc2s1)c1ccc(NS(=O)(=O)c2ccccc2)cc1 | 28% | 85.9% | 82.6% | 20% | 44.7% | 17.7% | – | – | – | – | – | – |
| COc1ccc(S(=O)(=O)Nc2ccc(C(=O)Nc3nc4ccccc4[nH]3)cc2)cc1 | 43% | 93.1% | 0% | – | 0% | 25.9% | – | – | – | – | – | – |
| COc1ccc(S(=O)(=O)Nc2cccc(C(=O)Nc3nc4ccccc4s3)c2)cc1 | 11% | 79.3% | 87.5% | 2% | 72.9% | 17.7% | 40.3% | 128 µM | 5.1 µM | Non-Toxic | 25.1 | – |
